In US7713953B2, “2-methylene-(22E)-25-(1-methylene-hexyl)-26,27-cyclo-22-dehydro-19-nor-vitamin D analogs” (Wisconsin Alumni Research Foundation, priority 2008, dated 2010):

How the values were obtained:
vitamin D-deficient rats [1] = assay: Intestinal calcium transport (everted gut sac method); type: in vivo, rat
Description: (§1) Male, weanling Sprague-Dawley rats were placed on Diet 11 (0.47% Ca) diet+AEK oil for one week followed by Diet 11 (0.02% Ca)+AEK oil for 3 weeks. The rats were then switched to a diet containing 0.47% Ca for one week followed by two weeks on a diet containing 0.02% Ca. Dose administration began during the last week on 0.02% calcium diet. Four consecutive ip doses were given approximately 24 hours apart. Twenty-four hours after the last dose, blood was collected from the severed neck and the concentration of serum calcium determined as a measure of bone calcium mobilization. The first 10 cm of the intestine was also collected for intestinal calcium transport analysis using the everted gut sac method.

vitamin D-deficient rats [2] = assay: Bone calcium mobilization (serum calcium); type: in vivo, rat; settings: for bone calcium mobilization activity (serum calcium): rats on low calcium diet (0.02%), 4 consecutive daily ip doses
Description: as §1

HL-60 cells = assay: HL-60 cell differentiation (nitro blue tetrazolium reduction); type: cell-based, human; settings: for EC50: FIG. 2
Description: The study drugs were dissolved in ethanol and the concentrations determined using UV spectrophotometry. Serial dilutions were prepared so that a range of drug concentrations could be tested without changing the final concentration of ethanol (≦0.2%) present in the cell cultures.
Human promyelocytic leukemia (HL60) cells were grown in RPMI-1640 medium containing 10% fetal bovine serum. The cells were incubated at 37° C. in the presence of 5% CO2.
HL60 cells were plated at 1.2×10^5 cells/ml. Eighteen hours after plating, cells in duplicate were treated with drug. Four days later, the cells were harvested and a nitro blue tetrazolium reduction assay was performed (Collins et al., 1979; J. Exp. Med. 149:969-974). The percentage of differentiated cells was determined by counting a total of 200 cells and recording the number that contained intracellular black-blue formazan deposits. Verification of differentiation to monocytic cells was determined by measuring phagocytic activity (data not shown).

[3] = target: T1, full-length recombinant rat vitamin D receptor (Rattus norvegicus, UniProt P13053); assay: Vitamin D receptor competitive binding with [3H]-1,25(OH)2D3; settings: full-length recombinant rat VDR; FIG. 1; read-out: Ki, competition with [3H]-1,25(OH)2D3 for binding to vitamin D receptor
T1 construct: Full-length recombinant rat receptor was expressed in E. coli BL21 (DE3) Codon Plus RIL cells; histidine tag (C); made in house; host or cells: E. coli BL21 (DE3) Codon Plus RIL
T1 sequence (P13053 1-423): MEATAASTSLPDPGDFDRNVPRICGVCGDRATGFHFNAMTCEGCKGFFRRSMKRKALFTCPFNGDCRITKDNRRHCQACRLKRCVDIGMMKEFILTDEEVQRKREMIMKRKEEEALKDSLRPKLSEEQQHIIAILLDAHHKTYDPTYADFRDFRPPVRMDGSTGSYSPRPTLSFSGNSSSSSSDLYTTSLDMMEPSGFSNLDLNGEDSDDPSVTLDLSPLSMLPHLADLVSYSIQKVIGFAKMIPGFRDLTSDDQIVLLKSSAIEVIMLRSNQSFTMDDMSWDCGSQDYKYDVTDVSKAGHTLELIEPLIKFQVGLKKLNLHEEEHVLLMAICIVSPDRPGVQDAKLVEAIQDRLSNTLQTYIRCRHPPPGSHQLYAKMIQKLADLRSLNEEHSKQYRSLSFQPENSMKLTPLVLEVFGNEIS
Description: Full-length recombinant rat receptor was expressed in E. coli BL21 (DE3) Codon Plus RIL cells and purified to homogeneity using two different column chromatography systems. The first system was a nickel affinity resin that utilizes the C-terminal histidine tag on this protein. The protein that was eluted from this resin was further purified using ion exchange chromatography (S-Sepharose Fast Flow). Aliquots of the purified protein were quick frozen in liquid nitrogen and stored at −80° C. until use. For use in binding assays, the protein was diluted in TEDK50 (50 mM Tris, 1.5 mM EDTA, pH7.4, 5 mM DTT, 150 mM KCl) with 0.1% Chaps detergent. The receptor protein and ligand concentration were optimized such that no more than 20% of the added radiolabeled ligand was bound to the receptor.
Radiolabeled and unlabeled ligands were added to 100 mcl of the diluted protein at a final ethanol concentration of ≦10%, mixed and incubated overnight on ice to reach binding equilibrium. The following day, 100 mcl of hydroxylapatite slurry (50%) was added to each tube and mixed at 10-minute intervals for 30 minutes. The hydroxylapaptite was collected by centrifugation and then washed three times with Tris-EDTA buffer (50 mM Tris, 1.5 mM EDTA, pH 7.4) containing 0.5% Titron X-100. […] Total binding was determined from the tubes containing only radiolabeled ligand.

[4] = tested on: 24-hydroxylase (24 Ohase) gene promoter in ROS 17/2.8 (bone) cells; assay: In vitro transcription assay (24-hydroxylase promoter luciferase reporter); type: cell-based
Description: Transcription activity was measured in ROS 17/2.8 (bone) cells that were stably transfected with a 24-hydroxylase (24 Ohase) gene promoter upstream of a luciferase reporter gene (Arbour et al., 1998). Cells were given a range of doses. Sixteen hours after dosing the cells were harvested and luciferase activities were measured using a luminometer.
RLU=relative luciferase units.

[5] = times greater than the native hormone

Row | SMILES | intestinal calcium transport at 780 pmol/day (vitamin D-deficient rats [1]) | bone calcium mobilization activity (serum calcium) (vitamin D-deficient rats [2]; FIG. 4A) | EC50 (HL-60 cells) | intestinal calcium transport activity at 260 pmol/day (vitamin D-deficient rats [1]; 260 pmol/day for 4 consecutive days, FIG. 5A) | dose at which any significant effect on intestinal calcium transport was seen (vitamin D-deficient rats [1]; FIG. 5A) | intestinal calcium transport activity (vitamin D-deficient rats [1]; FIG. 5A, overall) | intestinal calcium transport activity compared with native hormone (vitamin D-deficient rats [1]; FIG. 5B, second group of animals) | Ki [3] | bone calcium mobilization at 7020 pmol/day compared with native hormone at 780 pmol/day (vitamin D-deficient rats [2]; 7020 pmol/day for 4 consecutive days, FIG. 4B) | dose giving the same mobilization of bone calcium as 1,25(OH)2D3 at 32 pmol/day (vitamin D-deficient rats [2]; 4 consecutive days, FIG. 4A) | dose at which any substantial effect on bone calcium mobilization was seen (vitamin D-deficient rats [2]; FIG. 4A, first group of animals) | dose at which any substantial effect on bone calcium mobilization was seen (vitamin D-deficient rats [2]; FIG. 4B, second group of animals) | EC50 (HL-60 cells; Homo sapiens, HL-60) | HL-60 cell differentiation activity relative to 1α,25-dihydroxyvitamin D3 (HL-60 cells; [5]) | EC50 ([4]; 24-hydroxylase gene, FIG. 3, read-out: EC50, transcriptional activity in bone cells) | transcriptional activity in bone cells relative to 1α,25-dihydroxyvitamin D3 [4, 5]
1 | C=C1/C(=C\C=C2/CCC[C@]3(C)[C@@H]([C@H](C)CCCC(C)(C)O)CC[C@@H]23)C[C@@H](O)C[C@@H]1O [1,25(OH)2D3, 1α,25-dihydroxyvitamin D3, reference compound] | significant increase | increased serum calcium levels at all dosages | 3 nM | – | – | – | – | – | – | – | – | – | – | – | – | –
2 | C=C1[C@H](O)CC(=C/C=C2\CCC[C@]3(C)[C@@H]([C@H](C)/C=C/[C@@H](O)C4(C(=C)CCCCC)CC4)CC[C@@H]23)C[C@H]1O [MM-49, 2-methylene-(22E)-25-(1-methylene-hexyl)-26,27-cyclo-22-dehydro-19-nor-1α,24(R)-dihydroxyvitamin D3] | promotes intestinal calcium transport | relatively low, or little, activity in mobilizing calcium from bone | – | did not result in any activity | 780 pmol/day | relatively low, or little, intestinal calcium transport activity | significantly less than 1,25(OH)3D3 | 0.3 nM | did not result in the same mobilization of bone calcium | 260 pmol/day | 780 pmol/day | 35,100 pmol/day | 0.8 nM | ~5 times | 0.08 nM | 5 times
